Laboratory results reported in publication PMC8286840, “Identifying SARS-CoV-2 antiviral compounds by screening for small molecule inhibitors of Nsp3 papain-like protease” (Biochemical Journal, 2021).
Structures can show the parent of a compound that is named as a salt. Where two headings read alike, the source gives them in different places.

Assays:
[1] = target: T1, SARS-CoV-2 PLpro (nsp3 1564–1878) (Severe acute respiratory syndrome coronavirus 2, UniProt P0DTD1); test: biochemical; set-up: FRET-quenched peptide (Pro3) cleavage by PLpro, 10 min pre-incubation, slope over 20 min, normalised to no-compound control; settings: low concentration screen, read-out: % of control remaining
[2] = target: T1, SARS-CoV-2 PLpro (nsp3 1564–1878); test: biochemical; set-up: FRET-quenched peptide (Pro3) cleavage by PLpro, 10 min pre-incubation, slope over 20 min, normalised to no-compound control; settings: high concentration screen, read-out: % of control remaining

Compound: CNC1C(O)C(NC)C2OC3(O)C(=O)CC(C)OC3OC2C1O (centres unmarked) [Spectinomycin.2HCl]
- remaining activity at 1.25 µM ([1]; Well no.=1587): 101%
- remaining activity at 3.75 µM ([2]; Well no.=1587): 101%

Compound: COc1cc(C(O)C(=O)O)ccc1O (centres unmarked) [hydroxy(4-hydroxy-3-methoxyphenyl)acetic acid]
- remaining activity at 1.25 µM ([1]; Well no.=5433): 103%
- remaining activity at 3.75 µM ([2]; Well no.=5433): 108%

Compound: CCc1c(C(=O)OC)ncc2[nH]c3cc(OC)c(OC)cc3c12 [Methyl 6,7-dimethoxy-4-ethyl-beta-carboline-3-carboxylate]
- remaining activity at 1.25 µM ([1]; Well no.=703): 97.5%
- remaining activity at 3.75 µM ([2]; Well no.=703): 95.4%

Compound: Cc1cn([C@H]2C[C@H](O)[C@@H](CO)O2)c(=O)nc1N [5-Methyl-2'-deoxycytidine]
- remaining activity at 1.25 µM ([1]; Well no.=7493): 104%
- remaining activity at 1.25 µM ([1]; Well no.=7720): 98.8%
- remaining activity at 3.75 µM ([2]; Well no.=7493): 105%
- remaining activity at 3.75 µM ([2]; Well no.=7720): 102%

Compound: CCCCc1ncc(/C=C(\Cc2cccs2)C(=O)O)n1Cc1ccc(C(=O)O)cc1 [Eprosartan (mesylate)]
- remaining activity at 1.25 µM ([1]; Well no.=8191): 105%
- remaining activity at 3.75 µM ([2]; Well no.=8191): 105%

Compound: S=C=Nc1cccc(NC(=S)NCCCCNC(=S)Nc2cccc(N=C=S)c2)c1 [MRS 2578]
- remaining activity at 1.25 µM ([1]; Well no.=4797): 93.1%
- remaining activity at 1.25 µM ([1]; Well no.=7275): 95%
- remaining activity at 3.75 µM ([2]; Well no.=7275): 95.2%

Compound: NC(N)=Nc1nc(CSCCN/C=N/S(=O)(=O)c2ccc(Br)cc2)cs1 [Ebrotidine]
- remaining activity at 1.25 µM ([1]; Well no.=7003): 106%
- remaining activity at 3.75 µM ([2]; Well no.=7003): 103%

Compound: CCC1(c2ccc(N)cc2)CCC(=O)NC1=O (racemic)
- remaining activity at 1.25 µM ([1]; Well no.=202): 100%
- remaining activity at 3.75 µM ([2]; Well no.=202): 102%

Compound: O=C(O)[C@@H]1C[C@@H](C(=O)O)N1 (relative stereo) [trans-Azetidine-2,4-dicarboxylic acid]
- remaining activity at 1.25 µM ([1]; Well no.=68): 104%
- remaining activity at 3.75 µM ([2]; Well no.=68): 103%

Compound: CC(=O)OCC(=O)[C@@]1(O)[C@H](C)C[C@H]2[C@@H]3CCC4=CC(=O)C=C[C@]4(C)[C@@]3(F)[C@@H](O)C[C@@]21C [Dexamethasone (acetate)]
- remaining activity at 1.25 µM ([1]; Well no.=6465): 107%
- remaining activity at 3.75 µM ([2]; Well no.=6465): 106%

Compound: NCCc1c[nH]c2ccc(O)cc12 [Serotonin hydrochloride]
- remaining activity at 1.25 µM ([1]; Well no.=616): 98.2%
- remaining activity at 3.75 µM ([2]; Well no.=616): 100%

Compound: Nc1c2c(nc3ccccc13)CCCC2O (centres unmarked) [Hydroxytacrine]
- remaining activity at 1.25 µM ([1]; Well no.=1671): 103%
- remaining activity at 3.75 µM ([2]; Well no.=1671): 103%

Compound: CC(CN)C(=O)O (centres unmarked) [3-Amino-2-methylpropanoic acid]
- remaining activity at 1.25 µM ([1]; Well no.=6787): 101%
- remaining activity at 3.75 µM ([2]; Well no.=6787): 97.6%

Compound: O=C(O)/C=C/c1ccccc1 [Cinnamic acid]
- remaining activity at 1.25 µM ([1]; Well no.=7011): 104%
- remaining activity at 3.75 µM ([2]; Well no.=7011): 105%

Compound: O=C1NCN(c2ccccc2)C12CCN(CCCC(c1ccc(F)cc1)c1ccc(F)cc1)CC2 [Fluspirilene]
- remaining activity at 1.25 µM ([1]; Well no.=569): 98.4%
- remaining activity at 3.75 µM ([2]; Well no.=569): 97.3%
- remaining activity at 3.75 µM ([2]; Well no.=1599): 98.9%

Compound: O=C(O)c1ccc(O)cc1 [4-Hydroxybenzoic acid]
- remaining activity at 1.25 µM ([1]; Well no.=6729): 108%
- remaining activity at 3.75 µM ([2]; Well no.=6729): 105%

Compound: CC(C)[C@H](O)C(=O)N[C@@H](C)C(=O)N[C@@H]1C(=O)N(C)CCc2ccccc21 [Semagacestat (LY450139)]
- remaining activity at 1.25 µM ([1]; Well no.=4614): 102%
- remaining activity at 3.75 µM ([2]; Well no.=4614): 101%

Compound: COc1ccc([C@@H]2CC(=O)c3c(O)cc(O)cc3O2)cc1O [Hesperetin]
- remaining activity at 1.25 µM ([1]; Well no.=6630): 103%
- remaining activity at 3.75 µM ([2]; Well no.=6630): 104%

Compound: O=C[C@H](O)[C@@H](O)[C@H](O)CO [Xylose]
- remaining activity at 1.25 µM ([1]; Well no.=6351): 103%
- remaining activity at 1.25 µM ([1]; Well no.=8144): 99.9%
- remaining activity at 3.75 µM ([2]; Well no.=6351): 105%
- remaining activity at 3.75 µM ([2]; Well no.=8144): 96.9%

Compound: COC(=O)C1=C(C)NC(C)=C(C(=O)OCCN(C)Cc2ccccc2)C1c1cccc([N+](=O)[O-])c1 (centres unmarked) [Nicardipine.HCl]
- remaining activity at 1.25 µM ([1]; Well no.=1593): 104%
- remaining activity at 3.75 µM ([2]; Well no.=1593): 104%

Compound: c1ccc(-c2ccccn2)nc1 [2,2'-Bipyridyl]
- remaining activity at 1.25 µM ([1]; Well no.=724): 96.8%
- remaining activity at 3.75 µM ([2]; Well no.=724): 95.8%

Compound: C[C@@H](NCCCc1cccc(C(F)(F)F)c1)c1cccc2ccccc12 [Cinacalcet]
- remaining activity at 1.25 µM ([1]; Well no.=7389): 96.2%
- remaining activity at 3.75 µM ([2]; Well no.=7389): 82.2%

Compound: CCCCCCCCCCCCCCC[C@@H](O)[C@@H](N)CO [Dihydrosphingosine]
- remaining activity at 1.25 µM ([1]; Well no.=4399): 101%
- remaining activity at 3.75 µM ([2]; Well no.=4399): 96.6%

Compound: O=C1NC(=O)c2cc(Nc3ccc(F)cc3)c(Nc3ccc(F)cc3)cc21 [CGP 53353 - 5,6-bis[(4-Fluorophenyl)amino]-1H-isoindole-1,3(2H)-dione]
- remaining activity at 1.25 µM ([1]; Well no.=2530): 101%
- remaining activity at 3.75 µM ([2]; Well no.=2530): 102%

Compound: Cc1noc(-c2ccc(CSCCC(=O)O)cc2)c1NC(=O)OC(C)c1ccccc1Cl (centres unmarked) [Ki16425]
- remaining activity at 1.25 µM ([1]; Well no.=7955): 95.2%
- remaining activity at 3.75 µM ([2]; Well no.=7955): 96.5%

Compound: C[C@H]1C(=O)CC[C@@H]2[C@]1(C)CC[C@H]1[C@@]2(C)CC[C@@]2(C)[C@@H]3CC(C)(C)CC[C@]3(C)CC[C@]12C [Friedelin]
- remaining activity at 1.25 µM ([1]; Well no.=3208): 109%
- remaining activity at 3.75 µM ([2]; Well no.=3208): 110%

Compound: CC(C)(Oc1ccc(Cl)cc1)C(=O)O [Clofibric Acid]
- remaining activity at 1.25 µM ([1]; Well no.=8394): 87%
- remaining activity at 3.75 µM ([2]; Well no.=8394): 81.1%

Compound: Cn1nnc2c(C(N)=O)ncn2c1=O [Temozolomide]
- remaining activity at 1.25 µM ([1]; Well no.=1952): 95%
- remaining activity at 3.75 µM ([2]; Well no.=1952): 99.1%

Compound: O=c1[nH]nc(Sc2ncc([N+](=O)[O-])s2)n1-c1ccc2c(c1)OCCO2 [BI 78D3 - 4-(2,3-Dihydro-1,4-benzodioxin-6-yl)-2,4-dihydro-5-[(5-nitro-2-thiazolyl)thio]-3H-1,2,4-triazol-3-one]
- remaining activity at 1.25 µM ([1]; Well no.=2684): 95.6%
- remaining activity at 3.75 µM ([2]; Well no.=2684): 97.1%

Compound: CCCN(CCC)CCc1ccc(O)c(O)c1 [Dipropyldopamine hydrobromide]
- remaining activity at 1.25 µM ([1]; Well no.=684): 98.3%
- remaining activity at 3.75 µM ([2]; Well no.=684): 98.3%

Compound: O=C(O)c1ncccc1O [3-Hydroxypicolinic acid]
- remaining activity at 1.25 µM ([1]; Well no.=6885): 68.8%
- remaining activity at 3.75 µM ([2]; Well no.=6885): 92.3%

Compound: CN(CCOc1ccc(CC2SC(=O)NC2=O)cc1)c1ccccn1 (centres unmarked) [Rosiglitazone maleate]
- remaining activity at 1.25 µM ([1]; Well no.=1651): 104%
- remaining activity at 3.75 µM ([2]; Well no.=1651): 105%

Compound: CN(C)C(=O)Oc1cc(OC(=O)N(C)C)cc(C(O)CNC(C)(C)C)c1 (centres unmarked) [5-(2-(tert-butylamino)-1-hydroxyethyl)-1,3-phenylene bis(dimethylcarbamate) hydrochloride]
- remaining activity at 1.25 µM ([1]; Well no.=5871): 104%
- remaining activity at 3.75 µM ([2]; Well no.=5871): 103%

Compound: O=c1[nH]oc2c1CCNC2 [THIP hydrochloride]
- remaining activity at 1.25 µM ([1]; Well no.=1328): 96.3%
- remaining activity at 3.75 µM ([2]; Well no.=1328): 97.2%
